Laboratory results taken from patent publication US20150313228A1, “SYNERGISTIC HERBICIDAL COMBINATIONS AND METHODS OF USE” (priority 2012, published 2015).

Key:
[1] = tested on: broad-leaf and grass weed species; assay: Field testing of pre-emergence application of dicamba and acetochlor in Argentina and/or South Africa (Example 10); details: for percent control Y (DIACAMBA OR ATRAZINE ALONE): early rating (14 day); for Y (dicamba alone): late rating (28 day);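 on all read-outs here: percent weed control in field trials, rated at 14 days (early) and 28 days (late) after treatment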
soybeans = assay: Field screening for metribuzin tolerance in soybeans (Example 11, 13); format: in vivo, Glycine max; details: soybean lines containing a heterozygous (CT) allele of NGMAX006079502
Experimental: Field screening for metribuzin tolerance in soybeans was performed at the Monsanto Company Soybean Research Station near Mount Olive, N.C. in 2010 and 2011. Metribuzin application rate was 0.5 lbs/acre metribuzin (Sencor®, Bayer Crop Science, Research Triangle Park, N.C., U.S.A.) one day prior to planting. Rows were planted as single six foot row plots with 9 seed per foot. Multiple repetitions were grown per row. Within 24 hours after planting, the trial was irrigated with 0.5 inches of water to help incorporate and activate the herbicide. Injury ratings were taken fourteen to twenty one (14 to 21) days after planting using a 1 to 9 scale (for example, 1=no damage, 9=completely killed). After identifying the target region through the mapping population described in Example 12, a molecular marker was identified. An association study was done using a soybean molecular marker database. Over 200 commercial and breeding lines were characterized for metribuzin tolerance in field and greenhouse screening, as described in Example 11.

**Q.** `COc1c(Cl)ccc(Cl)c1C(=O)O` [Dicamba, 3,6-dichloro-2-methoxy benzoic acid] was tested. Which “percent control Y (DIACAMBA OR ATRAZINE ALONE)” value (“percent control Y” below) ([1]; AMADE, 560 g/ha) did it give?
**A.** 99.3%

**Q.** What about the “Y (dicamba alone)” value ([1]; AMADE, 560 g/ha) of the same compound?
**A.** 83.1%

**Q.** And the “percent control Y” value ([1]; AMAQU, 280 g/ha)?
**A.** 52.9%

**Q.** And the “Y (dicamba alone)” value ([1]; AMAQU, 280 g/ha)?
**A.** 40.6%

**Q.** What about the “percent control Y” value ([1]; AMAQU, 560 g/ha) of the same compound?
**A.** 61.4%

**Q.** And the “Y (dicamba alone)” value ([1]; AMAQU, 560 g/ha)?
**A.** 54.3%

**Q.** And the “percent control Y” value ([1]; ANOCR, 280 g/ha)?
**A.** 53.0%

**Q.** What about the “Y (dicamba alone)” value ([1]; ANOCR, 280 g/ha) of the same compound?
**A.** 40.5%

**Q.** And the “percent control Y” value ([1]; ANOCR, 560 g/ha)?
**A.** 66.1%

**Q.** What about the “Y (dicamba alone)” value ([1]; ANOCR, 560 g/ha) of the same compound?
**A.** 54.5%

**Q.** And the “percent control Y” value ([1]; BIDPI, 280 g/ha)?
**A.** 2.3%

**Q.** And the “Y (dicamba alone)” value ([1]; BIDPI, 280 g/ha)?
**A.** 5.0%

**Q.** And the “percent control Y” value ([1]; BIDPI, 560 g/ha)?
**A.** 74.5%

**Q.** What about the “Y (dicamba alone)” value ([1]; BIDPI, 560 g/ha) of the same compound?
**A.** 72.5%

**Q.** And the “Y (dicamba alone)” value ([1]; BRAER, 560 g/ha)?
**A.** 67.5%

**Q.** What about the “percent control Y” value ([1]; CHEAL, 280 g/ha) of the same compound?
**A.** 56.7%

**Q.** And the “Y (dicamba alone)” value ([1]; CHEAL, 280 g/ha)?
**A.** 38.2%

**Q.** And the “percent control Y” value ([1]; CHEAL, 560 g/ha)?
**A.** 96.7%

**Q.** And the “Y (dicamba alone)” value ([1]; CHEAL, 560 g/ha)?
**A.** 86.7%

**Q.** What about the “Y (dicamba alone)” value ([1]; CHRGA, 280 g/ha) of the same compound?
**A.** 6.2%

**Q.** What about the “percent control Y” value ([1]; CHRGA, 560 g/ha) of the same compound?
**A.** 98.0%

**Q.** What about the “Y (dicamba alone)” value ([1]; CHRGA, 560 g/ha) of the same compound?
**A.** 100.0%

**Q.** What about the “percent control Y” value ([1]; COMBE, 280 g/ha) of the same compound?
**A.** 2.7%

**Q.** And the “Y (dicamba alone)” value ([1]; COMBE, 280 g/ha)?
**A.** 10.0%

**Q.** And the “percent control Y” value ([1]; COMBE, 560 g/ha)?
**A.** 75.0%

**Q.** And the “Y (dicamba alone)” value ([1]; COMBE, 560 g/ha)?
**A.** 76.3%

**Q.** And the “percent control Y” value ([1]; CONFA, 280 g/ha)?
**A.** 1.3%

**Q.** What about the “Y (dicamba alone)” value ([1]; CONFA, 280 g/ha) of the same compound?
**A.** 6.2%

**Q.** And the “percent control Y” value ([1]; CONFA, 560 g/ha)?
**A.** 17.5%

**Q.** And the “Y (dicamba alone)” value ([1]; CONFA, 560 g/ha)?
**A.** 55.0%

**Q.** What about the “percent control Y” value ([1]; CYNDA, 280 g/ha) of the same compound?
**A.** 28.8%

**Q.** What about the “percent control Y” value ([1]; CYNDA, 560 g/ha) of the same compound?
**A.** 47.7%

**Q.** And the “percent control Y” value ([1]; CYPES, 280 g/ha)?
**A.** 1.0%

**Q.** And the “Y (dicamba alone)” value ([1]; CYPES, 280 g/ha)?
**A.** 5.0%

**Q.** What about the “percent control Y” value ([1]; CYPES, 560 g/ha) of the same compound?
**A.** 65.0%

**Q.** And the “Y (dicamba alone)” value ([1]; CYPES, 560 g/ha)?
**A.** 63.3%

**Q.** What about the “percent control Y” value ([1]; CYPRO, 280 g/ha) of the same compound?
**A.** 42.3%

**Q.** What about the “Y (dicamba alone)” value ([1]; CYPRO, 280 g/ha) of the same compound?
**A.** 0.8%

**Q.** And the “percent control Y” value ([1]; CYPRO, 560 g/ha)?
**A.** 44.4%

**Q.** And the “Y (dicamba alone)” value ([1]; CYPRO, 560 g/ha)?
**A.** 15.4%

**Q.** What about the “percent control Y” value ([1]; DATFE, 280 g/ha) of the same compound?
**A.** 18.5%

**Q.** And the “Y (dicamba alone)” value ([1]; DATFE, 280 g/ha)?
**A.** 16.7%

**Q.** What about the “percent control Y” value ([1]; DATFE, 560 g/ha) of the same compound?
**A.** 59.6%

**Q.** What about the “Y (dicamba alone)” value ([1]; DATFE, 560 g/ha) of the same compound?
**A.** 58.5%

**Q.** And the “percent control Y” value ([1]; DIGER, 280 g/ha)?
**A.** 2.5%

**Q.** And the “Y (dicamba alone)” value ([1]; DIGER, 280 g/ha)?
**A.** 10.0%

**Q.** What about the “percent control Y” value ([1]; DIGER, 560 g/ha) of the same compound?
**A.** 98.0%

**Q.** What about the “Y (dicamba alone)” value ([1]; DIGER, 560 g/ha) of the same compound?
**A.** 100.0%

**Q.** And the “percent control Y” value ([1]; DIGSA, 280 g/ha)?
**A.** 32.7%

**Q.** What about the “Y (dicamba alone)” value ([1]; DIGSA, 280 g/ha) of the same compound?
**A.** 23.8%

**Q.** What about the “percent control Y” value ([1]; DIGSA, 560 g/ha) of the same compound?
**A.** 45.6%

**Q.** And the “Y (dicamba alone)” value ([1]; DIGSA, 560 g/ha)?
**A.** 32.7%

**Q.** What about the “Y (dicamba alone)” value ([1]; DTTAE, 280 g/ha) of the same compound?
**A.** 6.2%

**Q.** What about the “Y (dicamba alone)” value ([1]; DTTAE, 560 g/ha) of the same compound?
**A.** 100.0%

**Q.** And the “percent control Y” value ([1]; ELEAF, 280 g/ha)?
**A.** 100.0%

**Q.** What about the “Y (dicamba alone)” value ([1]; ELEAF, 280 g/ha) of the same compound?
**A.** 8.0%

**Q.** And the “percent control Y” value ([1]; ELEAF, 560 g/ha)?
**A.** 100.0%

**Q.** And the “Y (dicamba alone)” value ([1]; ELEAF, 560 g/ha)?
**A.** 97.5%

**Q.** And the “percent control Y” value ([1]; HIBCA, 280 g/ha)?
**A.** 1.8%

**Q.** What about the “Y (dicamba alone)” value ([1]; HIBCA, 280 g/ha) of the same compound?
**A.** 11.3%

**Q.** What about the “percent control Y” value ([1]; HIBCA, 560 g/ha) of the same compound?
**A.** 42.5%

**Q.** And the “Y (dicamba alone)” value ([1]; HIBCA, 560 g/ha)?
**A.** 55.0%

**Q.** And the “Y (dicamba alone)” value ([1]; IPOBA, 280 g/ha)?
**A.** 8.8%

**Q.** What about the “Y (dicamba alone)” value ([1]; IPOBA, 560 g/ha) of the same compound?
**A.** 0.0%

**Q.** And the “percent control Y” value ([1]; IPOPD, 280 g/ha)?
**A.** 2.6%

**Q.** And the “Y (dicamba alone)” value ([1]; IPOPD, 280 g/ha)?
**A.** 10.0%

**Q.** And the “percent control Y” value ([1]; IPOPD, 560 g/ha)?
**A.** 21.3%

**Q.** What about the “Y (dicamba alone)” value ([1]; IPOPD, 560 g/ha) of the same compound?
**A.** 45.0%

**Q.** And the “percent control Y” value ([1]; OVERALL, 280 g/ha)?
**A.** 36.2%

**Q.** What about the “percent control Y” value ([1]; OVERALL, 560 g/ha) of the same compound?
**A.** 57.4%

**Q.** What about the “Y (dicamba alone)” value ([1]; Overall, 280 g/ha) of the same compound?
**A.** 29.8%

**Q.** And the “Y (dicamba alone)” value ([1]; Overall, 560 g/ha)?
**A.** 51.7%

**Q.** What about the “percent control Y” value ([1]; PERCENT WEED FREE, 280 g/ha) of the same compound?
**A.** 64.5%

**Q.** What about the “percent control Y” value ([1]; PERCENT WEED FREE, 560 g/ha) of the same compound?
**A.** 74.2%

**Q.** What about the “percent control Y” value ([1]; POROL, 280 g/ha) of the same compound?
**A.** 35.8%

**Q.** And the “Y (dicamba alone)” value ([1]; POROL, 280 g/ha)?
**A.** 27.8%

**Q.** And the “percent control Y” value ([1]; POROL, 560 g/ha)?
**A.** 49.2%

**Q.** What about the “Y (dicamba alone)” value ([1]; POROL, 560 g/ha) of the same compound?
**A.** 45.0%

**Q.** What about the “Y (dicamba alone)” value ([1]; Percent Weed Free, 280 g/ha) of the same compound?
**A.** 43.4%

**Q.** What about the “Y (dicamba alone)” value ([1]; Percent Weed Free, 560 g/ha) of the same compound?
**A.** 54.3%

**Q.** What about the “percent control Y” value ([1]; RCHBR, 280 g/ha) of the same compound?
**A.** 2.4%

**Q.** And the “Y (dicamba alone)” value ([1]; RCHBR, 280 g/ha)?
**A.** 8.5%

**Q.** What about the “percent control Y” value ([1]; RCHBR, 560 g/ha) of the same compound?
**A.** 89.0%

**Q.** And the “Y (dicamba alone)” value ([1]; RCHBR, 560 g/ha)?
**A.** 88.8%

**Q.** And the “percent control Y” value ([1]; TAGMI, 280 g/ha)?
**A.** 0.0%

**Q.** And the “Y (dicamba alone)” value ([1]; TAGMI, 280 g/ha)?
**A.** 0.0%

**Q.** And the “percent control Y” value ([1]; TAGMI, 560 g/ha)?
**A.** 92.5%

**Q.** What about the “Y (dicamba alone)” value ([1]; TAGMI, 560 g/ha) of the same compound?
**A.** 64.3%

**Q.** And the “percent control Y” value ([1]; XANST, 280 g/ha)?
**A.** 15.3%

**Q.** What about the “Y (dicamba alone)” value ([1]; XANST, 280 g/ha) of the same compound?
**A.** 28.8%

**Q.** What about the “percent control Y” value ([1]; XANST, 560 g/ha) of the same compound?
**A.** 43.3%

**Q.** What about the “Y (dicamba alone)” value ([1]; XANST, 560 g/ha) of the same compound?
**A.** 32.5%

**Q.** `CSc1nnc(C(C)(C)C)c(=O)n1N` [Metribuzin, 4-amino-6-(1,1-dimethylethyl)-3-(methylthio)-1,2,4-triazin-5(4H)-one] was tested. Which “metribuzin phenotype in the field” value (soybeans) did it give?
**A.** mixed phenotype of both tolerance and sensitivity
